Measurements reported in patent US20240182460A1, “ALLOSTERIC CHROMENONE INHIBITORS OF PHOSPHOINOSITIDE 3-KINASE (PI3K) FOR THE TREATMENT OF DISEASE” (PETRA PHARMA CORPORATION, priority 2022, published 2024).

Assays:
PI3Kα H1047R = biological target: T1, PI3Kα H1047R (Homo sapiens, UniProt P42336, H1047R); assay: PI3Kα H1047R mutant in vitro cell based assay, MDA-MB-453 cells (AlphaLisa SureFire); conditions: MDA-MB-453 cell line, 0% FBS, 3 hours treatment
T1 construct: The MDA-MB-453 (ATCC-HTB-131) cell line (PI3Kα H1047R); host or cells: MDA-MB-453
T1 sequence (P42336 whole entry H1047R): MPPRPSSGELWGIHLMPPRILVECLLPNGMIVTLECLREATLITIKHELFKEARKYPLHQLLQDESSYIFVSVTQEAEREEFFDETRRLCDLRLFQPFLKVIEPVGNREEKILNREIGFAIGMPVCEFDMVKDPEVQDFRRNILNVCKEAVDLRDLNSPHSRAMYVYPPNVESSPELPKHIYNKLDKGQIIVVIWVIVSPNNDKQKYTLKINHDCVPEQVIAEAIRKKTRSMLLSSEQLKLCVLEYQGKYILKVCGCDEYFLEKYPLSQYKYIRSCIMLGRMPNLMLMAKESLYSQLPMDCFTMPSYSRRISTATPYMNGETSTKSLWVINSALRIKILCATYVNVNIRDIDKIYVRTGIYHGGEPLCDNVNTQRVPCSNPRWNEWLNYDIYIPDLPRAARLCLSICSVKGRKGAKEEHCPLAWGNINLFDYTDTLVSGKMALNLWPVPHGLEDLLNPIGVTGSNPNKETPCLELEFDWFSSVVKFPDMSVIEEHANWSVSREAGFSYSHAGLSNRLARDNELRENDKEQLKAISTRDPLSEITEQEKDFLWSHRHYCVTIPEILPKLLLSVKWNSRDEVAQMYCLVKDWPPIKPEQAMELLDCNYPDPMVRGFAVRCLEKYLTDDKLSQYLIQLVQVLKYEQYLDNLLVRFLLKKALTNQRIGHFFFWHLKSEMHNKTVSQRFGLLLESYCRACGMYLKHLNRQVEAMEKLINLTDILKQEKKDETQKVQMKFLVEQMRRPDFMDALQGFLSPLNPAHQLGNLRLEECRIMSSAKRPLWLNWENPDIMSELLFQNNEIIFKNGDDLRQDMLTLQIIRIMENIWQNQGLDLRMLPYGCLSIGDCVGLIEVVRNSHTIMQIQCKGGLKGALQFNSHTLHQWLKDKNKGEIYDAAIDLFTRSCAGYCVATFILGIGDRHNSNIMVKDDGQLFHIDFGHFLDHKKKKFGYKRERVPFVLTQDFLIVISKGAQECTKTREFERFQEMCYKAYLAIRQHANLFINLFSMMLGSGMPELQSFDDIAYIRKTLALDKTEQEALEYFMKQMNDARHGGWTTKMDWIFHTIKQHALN
T1 sequence (P27986 whole entry partner): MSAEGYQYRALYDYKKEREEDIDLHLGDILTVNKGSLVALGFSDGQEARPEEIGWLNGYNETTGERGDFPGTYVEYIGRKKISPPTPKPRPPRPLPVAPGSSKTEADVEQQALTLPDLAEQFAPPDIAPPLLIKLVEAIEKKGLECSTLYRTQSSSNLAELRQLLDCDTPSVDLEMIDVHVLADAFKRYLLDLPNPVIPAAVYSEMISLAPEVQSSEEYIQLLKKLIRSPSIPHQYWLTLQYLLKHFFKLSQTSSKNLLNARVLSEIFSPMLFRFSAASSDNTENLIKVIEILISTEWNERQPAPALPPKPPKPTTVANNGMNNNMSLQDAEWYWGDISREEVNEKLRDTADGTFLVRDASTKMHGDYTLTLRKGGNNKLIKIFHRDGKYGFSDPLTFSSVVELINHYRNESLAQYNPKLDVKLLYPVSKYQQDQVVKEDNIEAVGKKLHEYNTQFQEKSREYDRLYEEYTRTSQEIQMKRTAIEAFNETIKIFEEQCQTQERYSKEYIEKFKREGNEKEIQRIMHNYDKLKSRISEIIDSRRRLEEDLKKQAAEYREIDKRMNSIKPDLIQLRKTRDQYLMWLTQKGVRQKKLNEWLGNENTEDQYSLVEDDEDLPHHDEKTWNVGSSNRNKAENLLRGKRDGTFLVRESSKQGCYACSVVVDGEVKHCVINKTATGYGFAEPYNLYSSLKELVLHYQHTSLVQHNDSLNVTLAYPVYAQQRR
In short: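 MDA-MB-453 cells (endogenous PI3Kα H1047R) were treated for 3 h in serum-free MEM containing 1 μg/mL insulin, with 10-point 1:3 dilutions in 0.3% DMSO. Lysates were read by AlphaLisa SureFire. IC50 came from a 4-parameter logistic fit of duplicate % inhibition, normalized to DMSO (max) and 1 μM GDC-0032 (min).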

PI3Kα E545K [1] = biological target: T2, PI3Kα E545K (Homo sapiens, UniProt P42336, E545K); assay: PI3Kα E545K mutant in vitro cell based assay, MDA-MB-361 cells; design: MDA-MB-361 (ATCC-HTB-27) cell line (PI3Kα E545K); host or cells: MDA-MB-361; conditions: MDA-MB-361 cell line, 0% FBS, no insulin, 3 hours treatment
T2 sequence (P42336 whole entry E545K): as the sequence (P42336 whole entry H1047R) above, with E545K, R1047H counted along it
T2 sequence (P27986 whole entry partner): as the sequence (P27986 whole entry partner) above
In short: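 Compound exposure lasted 3 hours, in duplicate 10-point 1:3 dilutions at 0.3% DMSO final, on overnight-attached MDA-MB-361 cells carrying PI3Kα E545K in insulin-free, 0% FBS MEM. Lysates read by SureFire AlphaLISA. Relative IC50 from 4-parameter logistic fit versus DMSO and 1 μM GDC-0032 controls.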

PI3Kα E545K [2] = biological target: T2, PI3Kα E545K; assay: PI3Kα E545K mutant in vitro cell based assay, MCF-7 cells; conditions: MCF-7 cell line, 0% FBS, 3 hours treatment
In short: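 MCF-7 cells (PI3Kα E545K) in serum-free MEM with 1 μg/mL insulin were treated 3 h with 10-point 1:3 dilutions in 0.3% DMSO. Lysates were read by SureFire AlphaLisa. IC50 was fitted by 4-parameter logistic to % inhibition relative to DMSO (max) and 1 μM GDC-0032 (min), duplicates averaged.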

| Structure (SMILES) | IC50 (PI3Kα H1047R) | IC50 (PI3Kα E545K [1]) | IC50 (PI3Kα E545K [2]) |
| --- | --- | --- | --- |
| Cc1cc([C@@H](C)Oc2ccc(Cl)nc2C(N)=O)c2oc(-c3cc(F)c4nn(C)cc4c3)c(C)c(=O)c2c1 [Example 17B, 6-Chloro-3-[(1R)-1-[2-(7-fluoro-2-methyl-indazol-5-yl)-3,6-dimethyl-4-oxo-chromen-8-yl]ethoxy]pyridine-2-carboxamide] | < 100 nM | < 500 nM |  |
| Cc1cc([C@@H](C)Oc2ccc(Cl)nc2-c2noc(=O)[nH]2)c2oc(-c3ccc4c(c3)OC(F)(F)O4)c(C)c(=O)c2c1 [Example 46A, 3-[6-Chloro-3-[(1R)-1-[2-(2,2-difluoro-1,3-benzodioxol-5-yl)-3,6-dimethyl-4-oxo-chromen-8-yl]ethoxy]-2-pyridyl]-4H-1,2,4-oxadiazol-5-one] | < 100 nM | < 500 nM | < 500 nM |
| CC(=O)Nc1ccc(-c2oc3c([C@@H](C)Oc4ccc(Cl)nc4C(N)=O)cc(C)cc3c(=O)c2C)cc1 [Example 58C, 3-[(1R)-1-[2-(4-Acetamidophenyl)-3,6-dimethyl-4-oxo-chromen-8-yl]ethoxy]-6-chloro-pyridine-2-carboxamide] | < 100 nM | < 500 nM |  |
| Cc1cc([C@@H](C)Oc2ccc(Br)nc2C(N)=O)c2oc(-c3ccc4nn(C)cc4c3)c(C)c(=O)c2c1 [Example 81C, 6-Bromo-3-[(1R)-1-[3,6-dimethyl-2-(2-methylindazol-5-yl)-4-oxo-chromen-8-yl]ethoxy]pyridine-2-carboxamide] | < 100 nM | < 500 nM |  |
| Cc1cc([C@@H](C)Oc2ccc(Cl)nc2NS(C)(=O)=O)c2oc(-c3cnn(C)c3)c(C)c(=O)c2c1 [Example 149A, N-[6-Chloro-3-[(1R)-1-[3,6-dimethyl-2-(1-methylpyrazol-4-yl)-4-oxo-chromen-8-yl]ethoxy]-2-pyridyl]methanesulfonamide] |  | < 500 nM | < 500 nM |
